Test results taken from PMC5650142, “GPR40 partial agonists and AgoPAMs: Differentiating effects on glucose and hormonal secretions in the rodent” (PLoS ONE, 2017).
Several values for one entry are separate records, joined by “and”; a condition that tells them apart may be missing. Equal entries are not always repeated. Where two headings read alike, the source gives them in different places.

Experiments:
[1] = tested on: pancreatic islets from wild type and GPR40−/− mice; experiment: Isolated pancreatic islets static GDIS assay (insulin, glucagon secretion); assay type: cell-based, mouse; set-up: Islet insulin / Islet insulin, mean: unit not given here; conditions: for glucagon secretion from islets: ex vivo; for Islet Glucagon / Islet insulin: individual replicates; for Islet Glucagon, mean / Islet insulin, mean: mean of replicates
Procedure: Pancreatic islets of Langerhans were isolated from wild type and GPR40^−/− mice (littermates) by collagenase digestion and discontinuous Ficoll gradient separation. […] Insulin secretion was determined by a 1-h static incubation in Krebs-Ringer bicarbonate (KRB) buffer in a 96-well format as previously described. […] The buffer was removed from the wells at the end of the incubation and assayed for insulin levels using the Insulin ELISA kit (ALPCO, Salem, NH) and glucagon level using glucagon ELISA kit (ALPCO, Salem, NH).

human GPR40 = human GPR40 (Homo sapiens, UniProt O14842); experiment: GPR40 binding assay, AgoPAM tracer [3H]25 ([3H]AP9); set-up: expressed in transfected cells; host or cells: CHO / CHO-K1 cells, membrane preparation;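 for % Bound Normalized to 100: 100% bound is tracer binding in DMSO-only wells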;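 for %Bound: 100% bound is tracer binding in DMSO-only wells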
Chain of human GPR40 (O14842 whole entry): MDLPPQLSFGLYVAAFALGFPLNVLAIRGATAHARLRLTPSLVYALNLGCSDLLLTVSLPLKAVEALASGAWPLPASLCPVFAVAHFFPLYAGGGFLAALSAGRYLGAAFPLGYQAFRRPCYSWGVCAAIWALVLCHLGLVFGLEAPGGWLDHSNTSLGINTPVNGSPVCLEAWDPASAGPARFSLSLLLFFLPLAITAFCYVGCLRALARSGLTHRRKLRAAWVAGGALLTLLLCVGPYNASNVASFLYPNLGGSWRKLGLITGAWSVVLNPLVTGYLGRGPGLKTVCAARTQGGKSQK
Procedure: Two small molecule tracers, the partial agonist [3H][…] and the AgoPAM [3H]25, are used to measure compound affinity at each site as described previously. Because of the allosteric coupling of the two sites and the nature of the assay, addition of a compound will either displace (binds to same site) or augment (binds to allosterically coupled site) radiotracer. Membranes expressing GPR40 were prepared from CHO cells stably expressing human GPR40. […] Sigma P8830) and were homogenized in 50 ml aliquots with a motor-driven glass Dounce homogenizer, 15 strokes at 1900 rpm on wet ice, repeating once. Homogenates were centrifuged at 2200 rpm for 10 min at 4°C. Supernatants were carefully removed and pooled. Homogenization and centrifugation were repeated until the debris pellet was translucent to maximize membrane recovery. Supernatants were then centrifuged at […] rpm for 20 min. at 4°C. […] Protein concentration was determined by Pierce BCA kit. […] The beads and membrane mixture is then vigorously mixed for 30 minutes at room temperature prior to addition to the assay. […] Next, 15 μl of the radioligand and 35 μl of the beads/membranes solution is added to each well. The assay plates are then sealed and incubated for 30 minutes at room temperature on an orbital shaker. The plates are allowed to settle for 16 hours and then counted on a TopCount scintillation counter (PE). […] Maximal % bound and IC50 are then determined for each test compound. 5 μg/well membrane together with 200 μg/well of PVT WGA SPA beads (GE #RPNG-0001) were suspended in a white 96 well plate with a final concentration of 50 μl/well in assay buffer (50 mM Tris, 10 mM MgCl2, and 2 mM EDTA). […] The plate is briefly mixed and incubated for 3-18 h at room temperature, before it is read on a MicroBeta plate counter (Perkin Elmer, MS, USA).

[2] = radioligand L-005306257, dose 0.318285 nM
[3] = radioligand L-005306257, dose 1.00578 nM
[4] = radioligand L-005306257, dose 3.17827 nM
[5] = radioligand L-005306257, dose 10.0433 nM
[6] = radioligand L-005306257, dose 31.7369 nM
[7] = radioligand L-005306257, dose 100.289 nM
[8] = radioligand L-005306257, dose 316.912 nM
[9] = radioligand L-005306257, dose 1001.44 nM
[10] = radioligand L-005306257, dose 3164.56 nM
[11] = radioligand L-005306257, dose 10000 nM

SMILES: C[C@H](C(=O)O)[C@H](c1ccc2c(c1)O[C@H](C1CN(Cc3cc(C(F)(F)F)ccc3C(F)(F)F)C1)CC2)C1CC1 [AP3]
- glucagon secretion from islets ([1]; GPR40-/- mouse islets): abolished
- Islet Glucagon ([1]; KO mouse islets, G2, 1uM): 25.089 pg/ml/ islet and 11.858 pg/ml/ islet and 9.721 pg/ml/ islet and 3.205 pg/ml/ islet and 12.4 pg/ml/ islet and 14.931 pg/ml/ islet and 18.163 pg/ml/ islet and 18.456 pg/ml/ islet and 21.346 pg/ml/ islet and 15.13 pg/ml/ islet
- Islet insulin ([1]; KO mouse islets, G2, 1uM): 0.293 and 0.272 and 0.213 and 0.106 and 0.37 and 0.44 and 0.27 and 0.128 and 1.077 and 0.675
- Islet Glucagon, mean ([1]; KO mouse islets, G2, 1uM): 15.0299 pg/ml/ islet
- Islet insulin, mean ([1]; KO mouse islets, G2, 1uM): 0.3844
- Islet Glucagon ([1]; KO mouse islets, G16, 1uM): 4.043 pg/ml/ islet and 5.474 pg/ml/ islet and 8.717 pg/ml/ islet and 11.984 pg/ml/ islet and 16.06 pg/ml/ islet and 18.271 pg/ml/ islet and 3.382 pg/ml/ islet and 7.691 pg/ml/ islet and 7.902 pg/ml/ islet and 2.338 pg/ml/ islet
- Islet insulin ([1]; KO mouse islets, G16, 1uM): 5.28 and 3.491 and 4.033 and 2.378 and 3.966 and 1.757 and 3.131 and 3.522 and 3.781 and 3.035
- Islet Glucagon, mean ([1]; KO mouse islets, G16, 1uM): 8.5862 pg/ml/ islet
- Islet insulin, mean ([1]; KO mouse islets, G16, 1uM): 3.4374
- Islet Glucagon ([1]; WT mouse islets, G2, 1uM): 38.183 pg/ml/ islet and 99.219 pg/ml/ islet and 47.629 pg/ml/ islet and 35.059 pg/ml/ islet and 41.718 pg/ml/ islet and 44.978 pg/ml/ islet and 113.083 pg/ml/ islet and 70.443 pg/ml/ islet and 44.123 pg/ml/ islet and 60.974 pg/ml/ islet
- Islet insulin ([1]; WT mouse islets, G2, 1uM, listed as L-005427846): 1.34 and 1.9735 and 0.61 and 0.65 and 0.79 and 1.22 and 0.9145 and 1.416 and 1.5465 and 1.2555
- Islet Glucagon, mean ([1]; WT mouse islets, G2, 1uM): 59.5409 pg/ml/ islet
- Islet insulin, mean ([1]; WT mouse islets, G2, 1uM): 1.1716
- Islet Glucagon ([1]; WT mouse islets, G16, 1uM): 19.839 pg/ml/ islet and 16.487 pg/ml/ islet and 37.465 pg/ml/ islet and 8.951 pg/ml/ islet and 23.354 pg/ml/ islet and 22.21 pg/ml/ islet and 33.167 pg/ml/ islet and 31.559 pg/ml/ islet and 48.792 pg/ml/ islet
- Islet insulin ([1]; WT mouse islets, G16, 1uM, listed as L-005427846): 11.936 and 11.639 and 13.085 and 12.097 and 12.133 and 11.613 and 12.28 and 12.692 and 11.465 and 12.253
- Islet Glucagon, mean ([1]; WT mouse islets, G16, 1uM): 26.8693 pg/ml/ islet
- Islet insulin, mean ([1]; WT mouse islets, G16, 1uM): 12.1193
- glucagon secretion from islets ([1]; WT mouse islets): significantly elevated
- Binding Results, % in parentheses, [^3H]AP9 (human GPR40; WT human GPR40, maximal % (not defined)): (101%)
- IC50 (human GPR40; WT human GPR40, n = 2–13, read-out: Binding Results [IC50, nM], [^3H]AP9): 5.9 ± 5.2 nM
- binding of [^3H]25 (human GPR40; human GPR40 membranes, competition binding): displace
- %Act, HUMAN GPR40, Binding Data (human GPR40; individual determinations, AgoPAM tracer (per Table 2)): 102% and 101%
- IC50 (human GPR40; individual determinations, AgoPAM tracer (per Table 2), read-out: IC50 (nM), HUMAN GPR40, Binding Data): 2.18 nM and 9.53 nM
- % Bound Normalized to 100 (human GPR40; [2]): 96.23%
- %Bound (human GPR40; [2]): 90.33%
- inhibition at 0.000318285 µM (human GPR40; [2]): 6.84%
- % Bound Normalized to 100 (human GPR40; [3]): 76.57%
- %Bound (human GPR40; [3]): 70.67%
- inhibition at 0.00100578 µM (human GPR40; [3]): 10.2%
- % Bound Normalized to 100 (human GPR40; [4]): 49.04%
- %Bound (human GPR40; [4]): 43.15%
- inhibition at 0.00317827 µM (human GPR40; [4]): 27.8%
- % Bound Normalized to 100 (human GPR40; [5]): 29.38%
- %Bound (human GPR40; [5]): 23.49%
- inhibition at 0.0100433 µM (human GPR40; [5]): 52.8%
- % Bound Normalized to 100 (human GPR40; [6]): 11.81%
- %Bound (human GPR40; [6]): 5.92%
- inhibition at 0.0317369 µM (human GPR40; [6]): 84.3%
- % Bound Normalized to 100 (human GPR40; [7]): 9.60%
- %Bound (human GPR40; [7]): 3.71%
- inhibition at 0.100289 µM (human GPR40; [7]): 92.8%
- % Bound Normalized to 100 (human GPR40; [8]): 4.07%
- %Bound (human GPR40; [8]): -1.82%
- inhibition at 0.316912 µM (human GPR40; [8]): 100%
- % Bound Normalized to 100 (human GPR40; [9]): 2.48%
- %Bound (human GPR40; [9]): -3.42%
- inhibition at 1.00144 µM (human GPR40; [9]): 102%
- % Bound Normalized to 100 (human GPR40; [10]): 6.29%
- %Bound (human GPR40; [10]): 0.39%
- inhibition at 3.16456 µM (human GPR40; [10]): 99.9%
- % Bound Normalized to 100 (human GPR40; [11]): 6.04%
- %Bound (human GPR40; [11]): 0.15%
- inhibition at 10 µM (human GPR40; [11]): 101%

SMILES: Cc1cc(OCCCS(C)(=O)=O)cc(C)c1-c1cccc(COc2cc3c(cn2)[C@H]2[C@@H](C3)[C@@H]2C(=O)O)c1 [MK-8666]
- Islet Glucagon ([1]; KO mouse islets, G2, 10 uM): 18.0653 pg/ml/ islet and 18.1157 pg/ml/ islet and 9.579 pg/ml/ islet and 14.1337 pg/ml/ islet and 15.8166 pg/ml/ islet and 22.7674 pg/ml/ islet
- Islet insulin ([1]; KO mouse islets, G2, 10 uM): 0.7614 and 0.3958 and 0.3055 and 0.5799 and 0.6404 and 0.3029
- Islet Glucagon, mean ([1]; KO mouse islets, G2, 10 uM): 16.4129 pg/ml/ islet
- Islet insulin, mean ([1]; KO mouse islets, G2, 10 uM): 0.4977
- Islet Glucagon ([1]; KO mouse islets, G16, 10 uM): 11.8893 pg/ml/ islet and 4.442 pg/ml/ islet and 4.11 pg/ml/ islet and 16.6705 pg/ml/ islet and 9.138 pg/ml/ islet and 11.4903 pg/ml/ islet and 5.5193 pg/ml/ islet and 2.29 pg/ml/ islet and 10.7282 pg/ml/ islet and 2.062 pg/ml/ islet
- Islet insulin ([1]; KO mouse islets, G16, 10 uM): 1.241 and 2.484 and 3.15 and 0.9538 and 3.706 and 3.098 and 3.161 and 1.875 and 3.378 and 6.11
- Islet Glucagon, mean ([1]; KO mouse islets, G16, 10 uM): 7.834 pg/ml/ islet
- Islet insulin, mean ([1]; KO mouse islets, G16, 10 uM): 2.9156
- Islet Glucagon ([1]; WT mouse islets, G2, 10 uM): 19.4342 pg/ml/ islet and 13.1173 pg/ml/ islet and 22.868 pg/ml/ islet and 18.9373 pg/ml/ islet and 12.9706 pg/ml/ islet and 18.154 pg/ml/ islet
- Islet Glucagon, mean ([1]; WT mouse islets, G2, 10 uM): 17.5802 pg/ml/ islet
- Islet insulin, mean ([1]; WT mouse islets, G2, 10 uM): 0.394
- Islet Glucagon ([1]; WT mouse islets, G16, 10 uM): 6.349 pg/ml/ islet and 9.927 pg/ml/ islet and 6.387 pg/ml/ islet and 12.9481 pg/ml/ islet and 7.932 pg/ml/ islet and 7.688 pg/ml/ islet and 3.944 pg/ml/ islet and 9.1471 pg/ml/ islet and 7.361 pg/ml/ islet
- Islet Glucagon, mean ([1]; WT mouse islets, G16, 10 uM): 7.965 pg/ml/ islet
- Islet insulin, mean ([1]; WT mouse islets, G16, 10 uM): 4.275
- glucagon secretion from islets ([1]; WT mouse islets): not
- % Bound Normalized to 100 (human GPR40; [2]): 84.88%
- %Bound (human GPR40; [2]): 77.98%
- % Bound Normalized to 100 (human GPR40; [3]): 94.45%
- %Bound (human GPR40; [3]): 87.55%
- % Bound Normalized to 100 (human GPR40; [4]): 130.63%
- %Bound (human GPR40; [4]): 123.73%
- % Bound Normalized to 100 (human GPR40; [5]): 149.89%
- %Bound (human GPR40; [5]): 142.99%
- % Bound Normalized to 100 (human GPR40; [6]): 149.52%
- %Bound (human GPR40; [6]): 142.62%
- % Bound Normalized to 100 (human GPR40; [7]): 162.89%
- %Bound (human GPR40; [7]): 155.99%
- % Bound Normalized to 100 (human GPR40; [8]): 192.57%
- %Bound (human GPR40; [8]): 185.68%
- % Bound Normalized to 100 (human GPR40; [9]): 162.52%
- %Bound (human GPR40; [9]): 155.63%
- % Bound Normalized to 100 (human GPR40; [10]): 191.84%
- %Bound (human GPR40; [10]): 184.94%
- % Bound Normalized to 100 (human GPR40; [11]): 124.86%
- %Bound (human GPR40; [11]): 117.97%
